The values that follow come from ChEMBL document CHEMBL1137150, “Factor Xa inhibitors based on a 2-carboxyindole scaffold: SAR of neutral P1 substituents” (Bioorg Med Chem Lett, 2004).

pIC50, pKi: −log10 of the molar value.

Serine protease 1, sequence (P07477 whole entry): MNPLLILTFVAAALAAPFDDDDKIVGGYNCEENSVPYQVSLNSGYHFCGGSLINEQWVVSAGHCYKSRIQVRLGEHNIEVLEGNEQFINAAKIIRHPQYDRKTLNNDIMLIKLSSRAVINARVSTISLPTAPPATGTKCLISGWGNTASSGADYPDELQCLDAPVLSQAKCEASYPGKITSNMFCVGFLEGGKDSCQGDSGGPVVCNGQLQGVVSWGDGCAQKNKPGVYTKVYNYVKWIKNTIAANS

The target in one series is Tissue-type plasminogen activator (Homo sapiens, UniProt P00750). The series can be described thus: inhibitory activity against human tissue plasminogen activator.
Tissue-type plasminogen activator, sequence (P00750 whole entry): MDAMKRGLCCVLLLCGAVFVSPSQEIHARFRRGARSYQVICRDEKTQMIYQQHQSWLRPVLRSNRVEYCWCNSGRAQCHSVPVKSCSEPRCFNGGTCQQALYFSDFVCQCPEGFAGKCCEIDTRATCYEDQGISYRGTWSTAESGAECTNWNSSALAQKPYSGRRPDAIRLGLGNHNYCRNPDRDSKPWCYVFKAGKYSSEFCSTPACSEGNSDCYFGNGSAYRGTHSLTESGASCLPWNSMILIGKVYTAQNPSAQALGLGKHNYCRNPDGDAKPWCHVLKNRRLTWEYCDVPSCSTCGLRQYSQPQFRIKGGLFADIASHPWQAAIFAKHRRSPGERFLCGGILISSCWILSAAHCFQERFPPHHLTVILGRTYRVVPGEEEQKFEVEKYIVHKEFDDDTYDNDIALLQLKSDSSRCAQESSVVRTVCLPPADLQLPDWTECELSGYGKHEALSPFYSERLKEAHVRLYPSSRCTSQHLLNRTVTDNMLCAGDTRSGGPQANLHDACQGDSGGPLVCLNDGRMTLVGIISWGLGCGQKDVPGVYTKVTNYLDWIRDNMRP
Conditions: not given
Consider `CC(C)N1CCC(NC(=O)c2cc3ccccc3n2CC(=O)Nc2ccc(Cl)cn2)CC1`, for which the pKi (usually −log10 of the Ki, conventionally taken in molar units) is below 4.00.
The molecule `CC(C)N1CCC(NC(=O)c2cc3ccccc3n2Cc2cc3ccc(Cl)cc3s2)CC1` showed a pKi below 4.00.
Same read-out and setting: the figure for `CC(C)N1CCC(NC(=O)c2cc3ccccc3n2CC(=O)Nc2ccc(Cl)cc2)CC1` is below 4.00.

Another series concerns the target T1, Prothrombin (Homo sapiens, UniProt P00734). The experiment in a line: Concentration required to double plasma clotting time of prothrombin time. The series is classed as functional, cell-free.
Conditions: not given
As to `CC(C)N1CCC(NC(=O)c2cc3ccccc3n2Cc2cc3ccc(Cl)cc3s2)CC1`, the Concentration is 14.1 µM.

In a further series the target is Coagulation factor X (Homo sapiens, UniProt P00742). The series can be described thus: Inhibitory activity against coagulation factor Xa.
Coagulation factor X, sequence (P00742 41-179 limits assumed): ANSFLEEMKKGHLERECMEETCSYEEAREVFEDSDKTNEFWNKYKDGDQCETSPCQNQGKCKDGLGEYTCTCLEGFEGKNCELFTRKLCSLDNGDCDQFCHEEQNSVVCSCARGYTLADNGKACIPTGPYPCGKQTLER
Coagulation factor X, sequence (P00742 235-488 limits assumed): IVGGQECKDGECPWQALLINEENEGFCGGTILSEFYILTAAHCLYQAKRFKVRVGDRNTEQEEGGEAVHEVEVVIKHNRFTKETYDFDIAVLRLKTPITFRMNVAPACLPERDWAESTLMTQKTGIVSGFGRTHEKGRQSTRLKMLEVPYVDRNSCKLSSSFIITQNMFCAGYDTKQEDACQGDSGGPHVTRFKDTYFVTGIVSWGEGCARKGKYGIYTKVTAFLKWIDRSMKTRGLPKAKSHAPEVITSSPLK
Conditions: not given
In turn, `COc1cccc(CCn2c(C(=O)NC3CCN(C(C)C)CC3)cc3ccccc32)c1` showed a negative logarithm of the Ki (pKi) below 5.00.
On the same count and under the same terms, for `CC(C)N1CCC(NC(=O)c2cc3ccccc3n2Cc2cnc(-c3ccc(Cl)cc3)s2)CC1` the value was 5.56; for `COc1cccc(-n2c(C(=O)NC3CCN(C(C)C)CC3)cc3ccccc32)c1`, 5.61.
Same read-out and setting: the figure for `CC(C)N1CCC(NC(=O)c2cc3ccccc3n2-c2cccc(Cl)c2)CC1` is 5.05; for `CC(C)N1CCC(NC(=O)c2cc3ccccc3n2Cc2ccc(Cl)cc2)CC1` it is 5.60.
In the case of `CC(C)N1CCC(NC(=O)c2cc3ccccc3n2CC(=O)Nc2cccc(Cl)c2)CC1`, the negative-log Ki (pKi) is 6.54.

Another series addresses Serine protease 1 (Homo sapiens, UniProt P07477). The series can be described thus: […].
Conditions: not given
In the case of `CC(C)N1CCC(NC(=O)c2cc3ccccc3n2CC(=O)Nc2ccc(Cl)cn2)CC1`, the negative-log Ki (pKi) is below 4.00.
Molecule `CC(C)N1CCC(NC(=O)c2cc3ccccc3n2Cc2cc(-c3ccc(Cl)s3)on2)CC1` gave a negative-log Ki (pKi) below 4.00.
`CC(C)N1CCC(NC(=O)c2cc3ccccc3n2Cc2cc3ccc(Cl)cc3s2)CC1`: the pKi was below 4.00.
Regarding `CC(C)N1CCC(NC(=O)c2cc3ccccc3n2CC(=O)Nc2ccc(Cl)cc2)CC1`, the negative logarithm of the Ki (pKi) was below 4.00.

In another series the target is T1, Prothrombin. The series can be described thus: Inhibitory activity against coagulation factor II (thrombin).
Conditions: not given
On to `CC(C)N1CCC(NC(=O)c2cc3ccccc3n2CC(=O)Nc2ccc(Cl)cn2)CC1`, for which the negative-log Ki (pKi) is below 5.00.
On the same count and under the same terms, the figure for `CC(C)N1CCC(NC(=O)c2cc3ccccc3n2Cc2cc3ccc(Cl)cc3s2)CC1` is 5.04; for `CC(C)N1CCC(NC(=O)c2cc3ccccc3n2CC(=O)Nc2ccc(Cl)cc2)CC1` it is below 5.00.

A further series concerns the target T1, Prothrombin. The series can be described thus: Concentration required for 50% inhibition of dilute prothrombin time. In kind it is functional.
Conditions: not given
`CC(C)N1CCC(NC(=O)c2cc3ccccc3n2CC(=O)Nc2ccc(Cl)cn2)CC1`: the pIC50 (in general, the negative decadic logarithm of the IC50, by convention in mol/L) was 7.70.
On the same count and under the same terms, for `CC(C)N1CCC(NC(=O)c2cc3ccccc3n2Cc2cc3ccc(Cl)cc3s2)CC1` the value was 6.05; for `CC(C)N1CCC(NC(=O)c2cc3ccccc3n2CC(=O)Nc2ccc(Cl)cc2)CC1`, 7.70.

System in the next series: not listed separately
The experiment in a line: Percent compound remaining after 2 hr incubation with human S9 liver fraction. The following applies: read-out: Activity. In kind it is ADME, subcellular.
With `CC(C)N1CCC(NC(=O)c2cc3ccccc3n2CC(=O)Nc2ccc(Cl)cn2)CC1`, the remaining at 2 h is 95%.
Take `CC(C)N1CCC(NC(=O)c2cc3ccccc3n2Cc2cc(-c3ccc(Cl)s3)on2)CC1`: the remaining at 2 h turned out to be 94%.
Take `CC(C)N1CCC(NC(=O)c2cc3ccccc3n2Cc2cc3ccc(Cl)cc3s2)CC1`: the remaining at 2 h was 98%.
`CC(C)N1CCC(NC(=O)c2cc3ccccc3n2CC(=O)Nc2ccc(Cl)cc2)CC1`: the remaining at 2 h stood at 67%.
